Data: US9889101B2, “Therapeutic treatment of cancer and dysplasia of the cervix or vagina using estrogen antagonists” (Wisconsin Alumni Research Foundation, priority 2009, dated 2018)

Columns and labels:
ER = settings: undefined if not mentioned; cited from earlier work
[1] = test system: K14E6/K14E7 double transgenic mice; test: Treatment of pre-existing cervical/vaginal cancer and dysplasia in estrogen-treated K14E6/K14E7 mice
Description: Experimental mice were generated by crossing K14E7 hemizygote and K14E6 homozygote mice. Female progenies were genotyped by PCR and a slow-releasing 17β-estradiol (E2) tablet (0.05 mg/60 days) (Innovative Research of America) was inserted subcutaneously under the dorsal skin every two months beginning at 4-6 weeks of age. After 6-month treatment with E2, one group of mice was sacrificed immediately to evaluate cancer phenotypes (6M E2 group), another group was maintained for another month without further treatment (6M E2+1M without fulvestrant group), and the third group was treated with fulvestrant for a month (6M E2+1M with fulvestrant group).
Faslodex (50 mg/ml, human formulation of intramuscular injection of fulvestrant) was purchased from Astra Zeneca. Mice were subcutaneously injected with 0.15 ml (equivalent to 7.5 mg of fulvestrant) of Faslodex twice a week for a month (total of 9 injections).
Mice were subsequently injected with fulvestrant as described in Materials and Methods. Reproductive tracts were harvested, fixed in para-formaldehyde (PFA), and embedded in paraffin. Every tenth 5 μM section was stained with H&E and histopathologically scored to identify the worst grade of cervical/vaginal disease present in each animal. […] EVISTA® tablets were purchased from Eli Lilly and Company, which are human formulation of raloxifene (60 mg/tablet). Tablets were resuspended in phosphate buffered saline at a final concentration of 10 mg/ml. K14E6/K14E7 double transgenic mice were treated with E2 for 6 months and subsequently with raloxifene for a month by intraperitoneally injecting them with 0.15 ml of raloxifene suspension (equivalent to 1.5 mg) 5 days a week.

[2] = test system: K14E6/K14E7 double transgenic mice; test: Prevention of cervical/vaginal cancer in E2-treated K14E6/K14E7 mice (preventive fulvestrant)
Description: Mice. […] Experimental mice were generated by crossing K14E7 hemizygote and K14E6 homozygote mice. Female progenies were genotyped by PCR and a slow-releasing 17β-estradiol (E2) tablet (0.05 mg/60 days) (Innovative Research of America) was inserted subcutaneously under the dorsal skin every two months beginning at 4-6 weeks of age. After 6-month treatment with E2, one group of mice was sacrificed immediately to evaluate cancer phenotypes (6M E2 group), another group was maintained for another month without further treatment (6M E2+1M without fulvestrant group), and the third group was treated with fulvestrant for a month (6M E2+1M with fulvestrant group).
Fulvestrant treatment. Faslodex (50 mg/ml, human formulation of intramuscular injection of fulvestrant) was purchased from Astra Zeneca. Mice were subcutaneously injected with 0.15 ml (equivalent to 7.5 mg of fulvestrant) of Faslodex twice a week for a month (total of 9 injections).

[3] = test system: CVX1 human cervical cancer cells (ERα-positive); test: Subcutaneous CVX1 tumors in nude mice; format: in vivo; settings: estrogen-treated nude mice, fulvestrant 7.5 mg s.c. twice a week, two-week treatment period
[4] = test system: CaSki cervical cancer cell line (ERα-negative); test: Subcutaneous CaSki tumors in nude mice; format: in vivo, human; settings: estrogen-treated nude mice, with fulvestrant 7.5 mg s.c. twice a week
[5] = test system: nontransgenic female mice; test: Uterine wet weight after one week of fulvestrant (dose finding); settings: two injections day 0 and day 3, uteri weighed day 7, normalized to body weight
Excerpt: The indicated dose was given to nontransgenic female mice by two injections at day 0 and day 3, and uteri were harvested and weighed at day 7. Uterine wet weight was normalized to body weight.

[6] = 6M E2 + 1M raloxifene 1.5 mg i.p. 5 days a week
[7] = 6M E2 + 1M fulvestrant 7.5 mg s.c. twice a week, 13 mice
[8] = 6M estrogen then fulvestrant for two weeks
[9] = 6M E2 + preventive fulvestrant (one month at the three-month time point), six-month endpoint
[10] = 6M E2 + preventive fulvestrant, six-month endpoint

In the case of `CC/C(=C(\c1ccccc1)c1ccc(OCCN(C)C)cc1)c1ccccc1` [Tamoxifen], the “Effect in cervix, vagina and endometrium” value (ER) is given as “agonist in cervix, vagina,”.
For `COc1ccc2c(c1)OC(C)(C)C(c1ccccc1)C2c1ccc(OCCN2CCCC2)cc1` (centres unmarked) [Ormeloxifene], the “Effect in cervix, vagina and endometrium” value (ER) is listed as “antagonist in endometrium”.
In the case of `CC/C(=C(/c1ccc(OCCN(C)C)cc1)c1cccc(O)c1)c1ccccc1` [Droloxifene], the “Effect in cervix, vagina and endometrium” value (ER) is listed as “agonist in endometrium”.
In the case of `O=C(c1ccc(OCCN2CCCCC2)cc1)c1c(-c2ccc(O)cc2)sc2cc(O)ccc12` [raloxifene], the “# mice w/ dysplasia only, CIN1” value [1, 6] is reported as 0 (0), the “# mice w/ dysplasia only, CIN2” value [1, 6] is reported as 0 (0) and the “# mice w/ dysplasia only, CIN3” value [1, 6] is reported as 0. For the same compound, the “# mice w/ dysplasia only, VIN1” value [1, 6] was 0 (0), the “# mice w/ dysplasia only, VIN2” value [1, 6] was 0 (0) and the “# mice w/ dysplasia only, VIN3” value [1, 6] was 1. The “# mice w/cancer and dysplasia, Cervix” value [1, 6] was 0 (0), the “# mice w/cancer and dysplasia, Vagina” value [1, 6] was 0 (0) and the “# mice with no dysplasia or cancer, Cervix” value [1, 6] was 7. For the same compound, the “# mice with no dysplasia or cancer, Vagina” value [1, 6] was 6, the “mice w/cancer and dysplasia (%), Cervix” value [1, 6] was 0 (0) % and the “mice w/cancer and dysplasia (%), Vagina” value [1, 6] was 0 (0) %. For the same compound, the “regression of cervical and vaginal disease including cancers” value ([1]; 6M E2 then raloxifene 1.5 mg i.p. 5 days a week for a month) was “complete regression” and the “Effect in cervix, vagina and endometrium” value (ER) was “neutral in endometrium”.
For `COc1ccc2c(c1)OC(C)(C)[C@@H](c1ccccc1)[C@@H]2c1ccc(OCCN2CCCC2)cc1` [Levormeloxifene], the “Effect in cervix, vagina and endometrium” value (ER) is given as “agonist in endometrium”.
In the case of `CC/C(=C(\c1ccc(I)cc1)c1ccc(OCCN2CCCC2)cc1)c1ccccc1` [Idoxifene], the “Effect in cervix, vagina and endometrium” value (ER) is given as “agonist in endometrium”.
For `Oc1ccc2c(c1)CC[C@H](c1ccccc1)[C@@H]2c1ccc(OCCN2CCCC2)cc1` [Lasofoxifene], the “Effect in cervix, vagina and endometrium” value (ER) is given as “neutral in endometrium”.
In the case of `CC1=C(c2ccc(OC(=O)C(C)(C)C)cc2)[C@H](c2ccc(OCCN3CCCCC3)cc2)Oc2cc(OC(=O)C(C)(C)C)ccc21` [EM-800], the “Effect in cervix, vagina and endometrium” value (ER) is listed as “antagonist in endometrium”.
With `C[C@]12CC[C@@H]3c4ccc(O)cc4C[C@@H](CCCCCCCCC[S+]([O-])CCCC(F)(F)C(F)(F)F)[C@H]3[C@@H]1CC[C@@H]2O` (some centres unmarked) [fulvestrant] the “number of mice with CIN1 as worst state (cervix)” value [1, 7] was 0 (0), the “number of mice with CIN2 as worst state (cervix)” value [1, 7] was 0 (0) and the “number of mice with CIN3 as worst state (cervix)” value [1, 7] was 0 (0). The “number of mice with VIN1 as worst state (vagina)” value [1, 7] was 0 (0), the “number of mice with VIN2 as worst state (vagina)” value [1, 7] was 0 (0) and the “number of mice with VIN3 as worst state (vagina)” value [1, 7] was 0 (0). The “number of mice with cervical cancer” value [1, 7] was 1 (1), the “number of mice with no dysplasia (worst state of disease)” value [1, 7] was 11 and the “number of mice with vaginal cancer” value [1, 7] was 1 (1). The “Average size of the largest tumor” value ([1]; 6M E2 + 1M with fulvestrant) was 0.02 ± 0.05^ mm^2, the “Tumor multiplicity, Cervix” value ([1]; 6M E2 + 1M with fulvestrant) was 0.2 ± 0.5 and the “Tumor multiplicity, Vagina” value ([1]; 6M E2 + 1M with fulvestrant) was 0.1 ± 0.3. For the same compound, the “dysplastic lesions (CIN and VIN) in lower reproductive tract” value ([1]; 6M estrogen then fulvestrant for 1 month) was “absence of any grade of dysplastic lesions”, the “cancers in the lower reproductive tracts” value [1, 8] was “still had cancers” and the “dysplastic lesions in lower reproductive tract” value [1, 8] was “absent”. For the same compound, the “thickness of lower reproductive tract epithelia” value ([1]; fulvestrant-treated mice) was 2-3 layers of cells, the “mice in which cancers persisted after one-month fulvestrant” value ([1]; of 13 mice, one cervical, one vaginal cancer) was 2 and the “# mice with no dysplasia or cancer, Cervix” value [2, 9] was 6. The “# mice with no dysplasia or cancer, Vagina” value [2, 9] was 6, the “# mice w/ dysplasia only, CIN1” value [2, 10] was 0 (0) and the “# mice w/ dysplasia only, CIN2” value [2, 10] was 0 (0). For the same compound, the “# mice w/ dysplasia only, CIN3” value [2, 10] was 0 (0), the “# mice w/ dysplasia only, VIN1” value [2, 10] was 0 (0) and the “# mice w/ dysplasia only, VIN2” value [2, 10] was 0 (0). For the same compound, the “# mice w/ dysplasia only, VIN3” value [2, 10] was 0 (0), the “# mice w/cancer and dysplasia, Cervix” value [2, 10] was 0 (0) and the “# mice w/cancer and dysplasia, Vagina” value [2, 10] was 0 (0). For the same compound, the “mice w/cancer and dysplasia (%), Cervix” value [2, 10] was 0 (0) %, the “mice w/cancer and dysplasia (%), Vagina” value [2, 10] was 0 (0) % and the “cervical disease at the six-month endpoint” value ([2]; fulvestrant for one month at the three-month time point of E2 treatment) was “neither CIN nor cervical cancer”. The CVX1 tumor growth [3] was “did not grow at all”, the CaSki tumor growth [4] was 4.7 fold and the “Effect in cervix, vagina and endometrium” value (ER) was “antagonist in cervix, vagina,”. The “decrease in uterine wet weight” value ([5]; fulvestrant 10 mg/week) was 50% and the “reduction in uterine wet weight” value ([5]; fulvestrant 15 mg/week) was 70%.
For `Cc1c(-c2ccc(O)cc2)n(Cc2ccc(OCCN3CCCCC3)cc2)c2ccc(O)cc12` [Pipendoxifene], the “Effect in cervix, vagina and endometrium” value (ER) is listed as “antagonist in endometrium”.
In the case of `CN(C)CCOc1ccc(/C(=C(/CCCl)c2ccccc2)c2ccccc2)cc1` [Toremifene], the “Effect in cervix, vagina and endometrium” value (ER) is listed as “agonist in endometrium”.
For `COc1ccc(-c2sc3cc(O)ccc3c2Oc2ccc(OCCN3CCCCC3)cc2)cc1` [Arzoxifene], the “Effect in cervix, vagina and endometrium” value (ER) is listed as “antagonist in endometrium”.
